Assay results as given in publication PMC11133429, “Regiodivergent biosynthesis of bridged bicyclononanes” (Nature Communications, 2024).

Key:
HsCPTb = tested on: T1, HsCPTb; test: HPLC prenyltransferase assay, yeast microsomes; type: biochemical, Hypericum sampsonii; conditions: optimum conditions, Mg2+, pH optimum 10
T1 construct: cDNA in pESC-URA (GAL1), S. cerevisiae INVSc1 microsomal fraction; no tag mentioned

HsCPTa = tested on: T2, HsCPTa; test: HPLC prenyltransferase assay, yeast microsomes; type: biochemical, Hypericum sampsonii; conditions: optimum conditions, Mg2+, pH optimum 7
T2 construct: cDNA in pESC-URA (GAL1), S. cerevisiae INVSc1 microsomal fraction; no tag mentioned

Row | Km (HsCPTb; prenyl donor, acceptor grandone (only one accepted)) | Km (HsCPTa; prenyl donor, acceptor not given) | Km (HsCPTb; DMAPP saturation) | Km (HsCPTa; DMAPP saturation) | SMILES
1 | 298 ± 29.5 µM | 65.4 ± 6.63 µM | – | – | CC(C)=CCOP(=O)(O)OP(=O)(O)O [DMAPP]
2 | – | – | 40.4 ± 5.06 µM | 62 ± 10.1 µM | CC(C)=CCC1=C(O)C(CC=C(C)C)(CC=C(C)C)C(=O)C(C(=O)c2ccccc2)=C1O [compound 1, grandone]
3 | – | – | – | 114 ± 20 µM | CC(C)=CCC/C(C)=C/C[C@]1(CC=C(C)C)C(=O)C(CC=C(C)C)=C(O)/C(=C(\O)c2ccccc2)C1=O [compound 2, kolanone]
4 | – | – | – | 106 ± 9.86 µM | CC(C)=CCC1=C(O)C(CC=C(C)C)(CC=C(C)C)C(=O)C(C(=O)C(C)C)=C1O [colupulone]
